# Results: patent publication US20250002463A1, “NEW SALT FORMS OF AMILORIDE AND ITS DERIVATIVES FOR PHARMACEUTICAL USE” (PSOMRI Holding AB, priority 2021, published 2025)
# Values joined by “and” are separate entries in the source; they are usually repeats but may differ in a detail not shown here. Equal entries are not always repeated.
# Legend:
# [1] = Polymorphism: solid forms found in salt screen by HT-XRPD; format: physicochemical; conditions: DME, THF; for Polymorphism: Example 1 salt screen in MeOH; for salt polymorphs found from all three crystallization solvents: Example 2, MeOH
# Protocol: (§1) The precipitated solids were analyzed by high throughput X-ray powder diffractometry (HT XRPD). Liquid phases (both solutions and mother liquors) were evaporated at ambient conditions and the residual solids were analyzed by HT XRPD.
# The salt screen experiments were carried out in methanol (MeOH), 1,2-dimethoxyethane (DME) and tetrahydrofuran (THF).
# [2] = Physical stability under Accelerated Aging Conditions (AAC, 40° C./75% RH, 2 days), HT-XRPD; conditions: for Physically stable after AAC: Example 1; for Physical Stability: AAC 40° C./75% RH, 2 days, re-analyzed by HT-XRPD
# [3] = Hygroscopicity by Dynamic Vapor Sorption (DVS); format: physicochemical; conditions: for classification of hygroscopic behaviour: based on water vapour uptake at 25° C./80% RH
# Protocol: The hygroscopic behaviour of the salts was evaluated through Dynamic Vapor Sorption (DVS) measurements with an RH profile 40-95-0-40% at 25° C. and a dm/dt of 0.002. The classification of the hygroscopic behaviour is based on the water vapour uptake at 25° C./80% RH in first adsorption cycle of sorption isotherm.
# [4] = Crystallinity of salt forms by HT-XRPD; format: physicochemical; conditions: salt screen solid forms
# Protocol: as §1
# XRPD patterns were obtained using the Ardena T2 high-throughput XRPD set-up. The plates were mounted on a Bruker General Area Detector Diffraction System (GADDS) equipped with a VÅNTEC-500 gas area detector corrected for intensity and geometric variations. The calibration of the measurement accuracy (peaks position) was performed using NIST SRM1976 standard (Corundum).
# No background subtraction or curve smoothing was applied to the XRPD patterns.
# [5] = Kinetic and thermodynamic solubility in water at 37° C. (1 h and 18 h, UPLC)
# [6] = Physio-chemical stability study, open container 25° C./60% RH and 40° C./75% RH (UPLC, TGMS, HT-XRPD); format: physicochemical; conditions: for UPLC 1 week / UPLC 3 weeks / UPLC 3 days: chemical purity
# Protocol: Open container at 25° C. and 60% RH • 2. Open container at 40° C. and 75% RH
# [7] = Intrinsic dissolution rate (rotating disc, μDiss) in water and FaSSIF; format: physicochemical; conditions: for IDR (mg/cm^2/min) Individual: single disc
# Protocol: Rotating disc intrinsic dissolution determinations were performed with a μDiss apparatus (Pion, USA) equipped with 6 independent glass fiber probes each connected to a diode area. Before the start of the experiment the probes were calibrated using the spectrum of a Mercury 362 nm pen-ray lamp. Discs were prepared in a passivated aluminum dye with a mini-IDR press (Heath Scientific, UK).
# Six dilutions of benzamil lactate salt were prepared in the dissolution media in the range from 0 to 0.5 mg/mL, and the solutions were stirred with a cross-shaped magnetic stirrer. These dilutions were used for the calibration curve which is used for the calculation of the amount of benzamil in solution. Moreover, the solutions were used to select the wavelength at which the samples were to be measured and to select the proper path length.
# The dyes were placed in their Teflon holder magnet stirrer and placed into 20 mL glass vials. Before to the sample measurement, a blank of each media was taken in the respective channel. The experiment started by the gentle addition of the pre-warmed dissolution media. Vials were incubated at 37° C. under continuous stirring at 100 rpm for a maximum of 4 h. UV absorption was measured with the in-line probes at regular intervals. Upon completion of the experiment the pH of the solution was determined. Concentrations of API in solution were calculated with use of the calibration curve and plotted against time. Dissolution rates were calculated over the linear parts of the curves. All dissolution rate experiments were done in triplicate except for TFA1 which were done in duplicate due to the lack of material.
# [8] = Example 2, 40° C./75% RH for 2 days
# [9] = water, 37° C., 30 mg/ml suspension
# [10] = open container 25° C. and 60% RH
# [11] = open container 40° C. and 75% RH
compound,measurement,setting,value
CC(=O)O.NC(=NC(=O)c1nc(Cl)c(N)nc1N)NCc1ccccc1 [ACA2],Polymorphism,[1],Yes
same,Physically stable after AAC,[2]; 40° C./75% RH for 2 days,physically stable and Yes
N=C(NCc1ccccc1)NC(=O)c1nc(Cl)c(N)nc1N.O=C(O)c1ccccc1 [BNZ1],Polymorphism,[1],Yes
same,Physically stable after AAC,[2]; 40° C./75% RH for 2 days,physically stable and Yes
same,water vapour uptake,"[3]; 25° C./80% RH, first adsorption cycle",0.1%
same,classification of hygroscopic behaviour,[3],non hygroscopic
N=C(NCc1ccccc1)NC(=O)c1nc(Cl)c(N)nc1N.O=C(O)c1ccccc1 [BNZ2],Polymorphism,[1],Yes
same,Physically stable after AAC,[2]; 40° C./75% RH for 2 days,physically stable and Yes
same,classification of hygroscopic behaviour,[3],slightly hygroscopic
NC(=NC(=O)c1nc(Cl)c(N)nc1N)NCc1ccccc1.O=C(O)c1ccccc1 [BNZ3],Polymorphism,[1],Yes
same,Physically stable after AAC,[2]; 40° C./75% RH for 2 days,physically stable and Yes
"Cl.N/C(=N\C(=O)c1nc(Cl)c(N)nc1N)NCc1ccccc1 [Benzamil HCl SM1, reference compound]",Polymorphism,[1],Yes
same,Physically stable after AAC,[2]; 40° C./75% RH for 2 days,No
NC(=NC(=O)c1nc(Cl)c(N)nc1N)NCc1ccccc1.O=S(=O)(O)c1cccc2c(S(=O)(=O)O)cccc12 [NDS1],salt polymorphs found from all three crystallization solvents,[1],only one salt polymorph
same,Physical Stability,[2],Stable
same,physical stability upon exposure to AAC,[2]; [8],physically stable
same,Crystallinity,[4],Good
NC(=NC(=O)c1nc(Cl)c(N)nc1N)NCc1ccccc1.O=C(O)c1cccnc1 [NIC1],salt polymorphs found from all three crystallization solvents,[1],only one salt polymorph
same,Physical Stability,[2],Stable
same,physical stability upon exposure to AAC,[2]; [8],physically stable
same,Crystallinity,[4],Good
NC(=NC(=O)c1nc(Cl)c(N)nc1N)NCc1ccccc1.O=[N+]([O-])O [NIT5],Polymorphism,[1],Yes
same,classification of hygroscopic behaviour,[3],slightly hygroscopic
NC(=NC(=O)c1nc(Cl)c(N)nc1N)NCc1ccccc1.O=C(O)c1cc2ccccc2c(Cc2c(O)c(C(=O)O)cc3ccccc23)c1O [PAM1],Physical Stability,[2],Stable
same,physical stability upon exposure to AAC,[2]; [8],physically stable
same,Crystallinity,[4],Obtained as mixture
NC(=NC(=O)c1nc(Cl)c(N)nc1N)NCc1ccccc1.O=C(O)c1cc2ccccc2c(Cc2c(O)c(C(=O)O)cc3ccccc23)c1O [PAM2],Physical Stability,[2],Stable
same,physical stability upon exposure to AAC,[2]; [8],physically stable
same,Crystallinity,[4],Poor
NC(=NC(=O)c1nc(Cl)c(N)nc1N)NCc1ccccc1.O=P(O)(O)O [PHO2],Polymorphism,[1],Yes
same,Physically stable after AAC,[2]; 40° C./75% RH for 2 days,physically stable and Yes
same,classification of hygroscopic behaviour,[3],slightly hygroscopic
CC(C)(C)C(=O)O.NC(=NC(=O)c1nc(Cl)c(N)nc1N)NCc1ccccc1 [PIV1],salt polymorphs found from all three crystallization solvents,[1],only one salt polymorph
same,Physical Stability,[2],Stable
same,physical stability upon exposure to AAC,[2]; [8],physically stable
same,Crystallinity,[4],Good
CCC(=O)O.NC(=NC(=O)c1nc(Cl)c(N)nc1N)NCc1ccccc1 [PRO1],Physical Stability,[2],Unstable
same,Crystallinity,[4],Good
CCC(=O)O.NC(=NC(=O)c1nc(Cl)c(N)nc1N)NCc1ccccc1 [PRO3],Physical Stability,[2],Unstable
same,Crystallinity,[4],Moderate
CCC(=O)O.NC(=NC(=O)c1nc(Cl)c(N)nc1N)NCc1ccccc1 [PRO4],Physical Stability,[2],Unstable
same,Crystallinity,[4],Obtained as mixture
NC(=NC(=O)c1nc(Cl)c(N)nc1N)NCc1ccccc1.O=C(O)c1ccccc1O [SAL1],Physical Stability,[2],Stable
same,physical stability upon exposure to AAC,[2]; [8],physically stable
same,Crystallinity,[4],Good
NC(=NC(=O)c1nc(Cl)c(N)nc1N)NCc1ccccc1.O=C(O)c1ccccc1O [SAL3],Physical Stability,[2],Unstable-
same,Crystallinity,[4],Moderate
CCCCCCCCCCCCCCCCCC(=O)O.NC(=NC(=O)c1nc(Cl)c(N)nc1N)NCc1ccccc1 [STE1],Physical Stability,[2],Stable
same,physical stability upon exposure to AAC,[2]; [8],physically stable
same,Crystallinity,[4],Obtained as mixture
CCCCCCCCCCCCCCCCCC(=O)O.NC(=NC(=O)c1nc(Cl)c(N)nc1N)NCc1ccccc1 [STE2],Physical Stability,[2],Stable
same,physical stability upon exposure to AAC,[2]; [8],physically stable
same,Crystallinity,[4],Poor
NC(=NC(=O)c1nc(Cl)c(N)nc1N)NCc1ccccc1.NC(=NC(=O)c1nc(Cl)c(N)nc1N)NCc1ccccc1.O=S(=O)(O)O [SUL1],Polymorphism,[1],Yes
same,Physically stable after AAC,[2]; 40° C./75% RH for 2 days,physically stable and Yes
N=C(NCc1ccccc1)NC(=O)c1nc(Cl)c(N)nc1N.O=C(O)C(O)C(O)C(=O)O [TAR1],Polymorphism,[1],Unclear
same,Physically stable after AAC,[2]; 40° C./75% RH for 2 days,physically stable
same,Physically stable after AAC,"[2]; 40° C./75% RH for 2 days, listed as TAR1 pc",Yes
NC(=NCc1ccccc1)NC(=O)c1nc(Cl)c(N)nc1N.O=C(O)C(F)(F)F [TFA2],XRPD 1 h Amb.,"[5]; residual solid after 1 h in water at 37° C., ambient-dried",TFA2
same,XRPD 1 h Vac.,"[5]; residual solid after 1 h in water at 37° C., vacuum-dried",TFA2
same,XRPD 18 h Amb.,"[5]; residual solid after 18 h in water at 37° C., ambient-dried",TFA2
same,XRPD 18 h Vac.,"[5]; residual solid after 18 h in water at 37° C., vacuum-dried",TFA2
same,pH after 10 min,[5]; [9],6.0
same,pH after 1 h,[5]; [9],6.2
same,Solubility (mg/mL) 1 h,"[5]; water, 37° C., 1 h (kinetic), UPLC",2.6 mg/mL
same,Solubility (mg/mL) 18 h,"[5]; water, 37° C., 18 h (thermodynamic), UPLC",1.6 mg/mL
same,UPLC t0,[6]; chemical purity at start of stability study,99.1% and 100%
same,UPLC 1 week,[6]; [10],99.9% and 100%
same,UPLC 3 weeks,[6]; [10],100%
same,UPLC 3 days,[6]; [10],99.9% and 100%
same,UPLC 1 week,[6]; [11],100%
same,UPLC 3 weeks,[6]; [11],100%
same,UPLC 3 days,[6]; [11],99.9% and 100%
same,physical and chemical stability,[6]; incubation for 3 weeks at 25° C./60% RH and 40° C./75% RH,physically and chemically stable
same,TGMS 1 week,[6]; [10],0.1% water and <0.1 % water
same,XRPD 1 week,[6]; [10],TFA2 and TFA1
same,TGMS 3 weeks,[6]; [10],<0.1% water
same,XRPD 3 weeks,[6]; [10],TFA2
same,XRPD 3 days,[6]; [10],TFA2 and TFA1
same,TGMS 1 week,[6]; [11],0.1% water and <0.1 % water
same,XRPD 1 week,[6]; [11],TFA2 and TFA1
same,TGMS 3 weeks,[6]; [11],<0.1% water
same,XRPD 3 weeks,[6]; [11],TFA2
same,XRPD 3 days,[6]; [11],TFA2 and TFA1
same,XRPD t0,[6]; start of stability study,TFA2 and TFA1
same,Physically stable?,"[2]; AAC, 2 days at 40° C. and 75% RH, solids from thermocycling",Yes
same,physical stability upon exposure to AAC,"[2]; Example 3 thermocycling solids, 2 days at 40° C. and 75% RH",physically stable
same,IDR (mg/cm^2/min) Average,"[7]; FaSSIF, 37° C., 100 rpm",0.14 ± 0.004 mg/cm^2/min
same,IDR (mg/cm^2/min) Individual,"[7]; FaSSIF, 37° C., 100 rpm",0.145 mg/cm^2/min and 0.143 mg/cm^2/min and 0.138 mg/cm^2/min
same,IDR (mg/cm^2/min) Average,"[7]; Water, 37° C., 100 rpm",0.13 ± 0.1 mg/cm^2/min
same,IDR (mg/cm^2/min) Individual,"[7]; Water, 37° C., 100 rpm",0.116 mg/cm^2/min and 0.143 mg/cm^2/min and 0.130 mg/cm^2/min
same,state of tablet,"[7]; after about 4 h, 37° C.",still not completely dissolved
same,IDR difference to LAC1,[7]; in FaSSIF,about 4 fold
same,Intrinsic Dissolution Rate (IDR),"[7]; water, 37° C., 100 rpm, linear part (LAC1 1 to 36 min; TFA 10-100 min)",0.13±0.01 mg/cm^2/min
Cc1ccc(S(=O)(=O)O)cc1.NC(=NC(=O)c1nc(Cl)c(N)nc1N)NCc1ccccc1 [TOS1],Polymorphism,[1],Unclear
same,Physically stable after AAC,[2]; 40° C./75% RH for 2 days,physically stable and Yes
same,classification of hygroscopic behaviour,[3],slightly hygroscopic
CCCCC(=O)O.NC(=NC(=O)c1nc(Cl)c(N)nc1N)NCc1ccccc1 [VAL1],Physical Stability,[2],Stable
same,physical stability upon exposure to AAC,[2]; [8],physically stable
same,Crystallinity,[4],Good
PAM3,Physical Stability,[2],Unstable
same,Crystallinity,[4],Poor
